In patent US20190178896A1, “MARKER FOR THE CLASSIFICATION, DIAGNOSIS AND TREATMENT OF SCOLIOSIS” (Chu Sainte-Justine, priority 2013, published 2019):
Counter-ions that a name gives are not always drawn. Like-named read-outs stand apart in the source and are kept apart here.

Legend:
[1] = test system: osteoblasts from control and AIS patients; assay: cells
Protocol: The targeted endogenous receptors are shown in parentheses. The impedance represented in y-axis as dziec was measured by the Cellkey™ system every 2 sec. Data are representative of impedance signature in osteoblasts from 12 individuals tested three times in duplicate for each group;
A total of ten compounds were tested and the representative refraction index curves generated by each of these compounds in control and AIS osteoblasts are illustrated in FIGS. 10A-10J).

[2] = test system: PBMCs from patients with IS; assay: Effect of rOPN on cellular response to Gi stimulation (somatostatin) in PBMCs, CDS-based system; format: cell-based, human; conditions: 0.5 μg/mL rOPN 18 h, 10 μM somatostatin
Protocol: Cells were serum-starved for 18 h in the presence or absence of 0.5 μg/mL rOPN and then stimulated with 10 μM of somatostatin to initiate Gi-mediated cellular response. Data in the graph were generated from maximum-minimum impedance and correspond to the average of response in duplicate;
3. Functional Assay: Day 1: 1. Place PBMCs aliquot from liquid nitrogen in water bath at 37° C. for a minute or until defrosted. 2. Transfer the cell suspension to a 50 mL tube with a sterile pipette. 3. Add 15 mL of Complete media and spin the cells down at 200×g for 5 minutes at room temperature. 4. Remove the supernatant by aspiration. 5. Gently suspend cell pellet in 1 mL of PHA media. 6. Complete the volume to 20 mL with the same media. 7. Cap the tube loosely to allow air to enter. 8. Leave the tube overnight at 37 ° C. in a CO2 incubator to allow quiescent lymphocytes to transform into rapidly-proliferating lymphoblasts.
Day 2: 1. Take the tube out of the incubator, screw the caps completely and spin the cells down at 200×g for 5 min at room temperature. 2. Remove the supernatant by aspiration. 3. Gently suspend cell pellet in 1 mL of complete media. 4. Complete the volume to 20 mL with the same media. 5. Cap the tube loosely to allow air to enter. 6. Leave the tube overnight at 37° C. in a CO2 incubator to expand cell numbers.
Day 3: 1. Take the tube out of the incubator, screw the caps completely and spin the cells down at 200×g for […] at room temperature. 2. Remove the supernatant by aspiration. 3. Wash cells twice with 10 mL of RPMI-1640 (media developed for growing human normal and neoplastic leukocytes (peripheral blood lymphocytes)) by centrifugation at 200×g for […] at room temperature. 4. Gently re-suspend the cell pellet in 600 μL of RPMI-1640. 5. Measure the cell concentration and viability, using an automated cell counter and viability analyzer. 6. Add appropriate volume of RPMI-1640 to adjust to a cell concentration of 1.5×10^5 cell/20 μL. 7. Treat cells with recombinant OPN (rOPN) or vehicle (PBS). 7.1 Transfer 100 μL of cell suspension to two sterile 1.5 ml eppendorf tubes. […]

[3] = test system: Gs and Gq proteins; assay: Gs and Gq siRNA knockdown effect on impedance signature of GiPCR agonists in osteoblasts; format: cell-based, human
Protocol: Osteoblasts from control subjects and AIS patients of each functional group were transfected with scramble siRNA, Gs siRNA, or Gq siRNA. Efficiency of siRNA in control and AIS groups was verified with qPCR and Western blot analyses 48 hours after transfection, and response to stimulation with GiPCR agonist of cluster I, cluster II, cluster III and cluster IV was evaluated by challenging cells with 10 μM of (FIG. 14A-14D) LPA, (FIG. 14EA-14H) CB65, (FIG. 14I-14L) Somatostatin and (FIG. 14M-14P) Apelin-17, respectively. […] The impedance represented in y-axis as dziec was measured every 2 sec. Data are representative of impedance signatures generated by CellKey™ system in osteoblasts from 12 individuals tested three times in duplicate for each group.;
All Gi1, Gi2, Gi3, Gs and scrambled siRNA were obtained from Ambion (Ambion USA). The sequences used for gene silencing are shown in supplemental Table 3. Osteoblasts from control subjects and AIS patients were transiently transfected in serum-free medium, using Lipofectamine RNAiMAX reagent (Invitrogen) according to the manufacturer's instructions and functional experiments were performed 48 h post transfection. The gene knockdown was evaluated by quantitative real-time PCR (qPCR).
The possibility that the disparity in the shape of impedance among AIS groups in response to GiPCR activation implicates a component of Gs or Gq proteins-dependent response was then […] examined For this purpose, the small interference RNA (siRNA) approach was used to knockdown Gs or Gq proteins prior to stimulate cells.

[4] = Homo sapiens, Osteoblast, read-out: Control EC50 (nM)
[5] = Homo sapiens, Osteoblast, read-out: FG1 EC50 (nM)
[6] = Homo sapiens, Osteoblast, read-out: FG2 EC50 (nM)
[7] = Homo sapiens, Osteoblast, read-out: FG3 EC50 (nM)

## Brc1c(NC2=NCCN2)ccc2nccnc12 [UK14304, 5-bromo-N-(4,5-dihydro-1H-imidazol-2-yl)-6-quinoxalinamine]
[1]; [4]
  EC50: 16.5 ± 2.3 nM
[1]; [5]
  EC50: 18.5 ± 4.2 nM
[1]; [6]
  EC50: 16.6 ± 1.6 nM
[1]; [7]
  EC50: 17.8 ± 1.3 nM

## CCNC(=O)[C@H]1O[C@@H](n2cnc3c(N)ncnc32)[C@H](O)[C@@H]1O [NECA, 1-(6-Amino-9H-purin-9-yl)-1-deoxy-N-ethyl-β-D-ribofuranuronamide]
[1]; [4]
  EC50: 20.9 ± 2.2 nM
[1]; [5]
  EC50: 20.9 ± 1.7 nM
[1]; [6]
  EC50: 20.8 ± 1.2 nM
[1]; [7]
  EC50: 22.2 ± 2.2 nM

## COc1ccc2[nH]cc(CCNC(C)=O)c2c1 [Melatonin, melatonin]
[1]; [4]
  EC50: 33.4 ± 8.4 nM
[1]; [5]
  EC50: 42.3 ± 9.4 nM
[1]; [6]
  EC50: 48.7 ± 6.4 nM
[1]; [7]
  EC50: 45.8 ± 5.3 nM

## c1ccc(N2CCN(CCCOc3ccc4c(c3)OCO4)CC2)cc1 [BP554, 1-[3-(3,4-Methylenedioxyphenoxy)propyl]-4-phenyl-piperazine maleate]
[1]; [4]
  EC50: 22.3 ± 1.7 nM
[1]; [5]
  EC50: 22.3 ± 2.3 nM
[1]; [6]
  EC50: 22.5 ± 1.6 nM
[1]; [7]
  EC50: 22.4 ± 1.5 nM

## OPN: recombinant human osteopontin (R & D Systems)
[2]; patient 370
  reduction of response to Gi stimulation following rOPN treatment: less than 50%
[2]; patients 345 and 382
  reduction of response to Gi stimulation following rOPN treatment: more than 50%
[2]; patients 353 and 371
  OPN effect on the response to Gi stimulation: increased the response

## O=C(NC1CCCCC1)c1cn(CCN2CCOCC2)c2cc(Cl)ccc2c1=O [CB65, N-Cyclohexyl-7-chloro-1-[2-(4-morpholinyl)ethyl]quinolin-4(1H)-one-3-carboxamide]
[1]; [4]
  EC50: 13.9 ± 1.2 nM
[1]; [5]
  EC50: 14 ± 1.2 nM
[1]; [6]
  EC50: 13.7 ± 1.2 nM
[1]; [7]
  EC50: 13.9 ± 1.3 nM
[3]; FG1
  Gs coupling (permissive) of agonist/GiPCR: CB65/Gs+
[3]; FG2
  Gs coupling (permissive) of agonist/GiPCR: CB65/Gs−
[3]; FG3
  Gs coupling (permissive) of agonist/GiPCR: CB65/Gs−

## CSCC[C@H](NC(=O)[C@@H]1CCCN1C(=O)CNC(=O)[C@H](CCCCN)NC(=O)[C@H](Cc1c[nH]cn1)NC(=O)[C@H](CO)NC(=O)[C@H](CC(C)C)NC(=O)[C@H](CCCNC(=N)N)NC(=O)[C@@H]1CCCN1C(=O)[C@H](CCCNC(=N)N)NC(=O)[C@H](CCC(N)=O)NC(=O)[C@H](CCCNC(=N)N)NC(=O)[C@H](CCCNC(=N)N)NC(=O)[C@H](Cc1ccccc1)NC(=O)[C@@H](N)CCCCN)C(=O)N1CCC[C@H]1C(=O)N[C@@H](Cc1ccccc1)C(=O)O [Apelin-17]
[3]; FG1
  Gs coupling (permissive) of agonist/GiPCR: Apelin-17/Gs−
[3]; FG2
  Gs coupling (permissive) of agonist/GiPCR: Apelin-17/Gs−
[3]; FG3
  Gs coupling (permissive) of agonist/GiPCR: Apelin-17/Gs−

## Lysophosphatidic acid [LPA]
[1]; read-out: Control EC50, impedance response, osteoblasts from control subjects
  EC50: 8.52 ± 1.5 nM
[1]; read-out: FG1 EC50, impedance response, osteoblasts from AIS patients of group FG1
  EC50: 8.78 ± 0.6 nM
[1]; read-out: FG2 EC50, impedance response, osteoblasts from AIS patients of group FG2
  EC50: 8.54 ± 1.4 nM
[1]; read-out: FG3 EC50, impedance response, osteoblasts from AIS patients of group FG3
  EC50: 8.59 ± 1.2 nM
[3]; FG1
  Gs coupling (permissive) of agonist/GiPCR: LPA/Gs+
[3]; FG2
  Gq coupling (permissive) of agonist/GiPCR: LPA/Gq+
[3]; FG3
  Gq coupling (permissive) of agonist/GiPCR: LPA/Gq+
